Measured values as given in patent US20080070942A1, “PRAZOLE DERIVATIVES AND SALTS THEREOF AND USE OF SAME” (JIANGSU HANSEN PHARMACEUTICAL CO., LTD., priority 2004, published 2008).
Marks after values point to notes of the source that are not given here.

What was measured:
[1] = system: gastric ulcer model induced by anhydrous ethanol in rats; assay: Gastric ulcer model induced by anhydrous ethanol in rats; format: in vivo, Wistar rat; set-up: Ulcer area: unit not given beside the values; conditions: for ulcer areas, effect in words: anhydrous ethanol ulcer
Description: Wistar rat, weight: 180-220 g, male, obtained from Institute of Zoology, Chinese Academy of Medical Sciences. Compound (I) and Compound (II) of the present invention and sodium rabeprazole, provided by Jiangsu Hansen Pharmaceutical Co., Ltd. The required concentration is prepared with distilled water and the volume for administration of drug is 10 ml/kg. Methods: 40-hour fasting rats were randomly divided into groups and treated with different doses of sodium rabeprazole, compound (I), compound (II) and distilled water (as control) by gastric perfusion, respectively. After 0.5 hour, each rat was administered with 1 ml anhydrous ethanol and then rats were sacrificed 1 hour later. The stomachs were taken out and injected with 10 ml fix solution. After fixed in 3% formaldehyde solution, the stomachs were dissected and the ulcer areas were measured. The significance test was made by t-programme.

[2] = system: gastric acid secretion model induced by pylorus ligation in rats; assay: Effect on gastric acid secretion model induced by pylorus ligation in rats; format: in vivo, Wistar rat; conditions: pylorus-ligated rats, 5 hours after operation
Description: Wistar rat, weight 180-220 g, male, obtained from Institute of Zoology, Chinese Academy of Medical Sciences. Sodium rabeprazole, compound (II) of the present invention and tenatoprazole, provided by Jiangsu Hansen Pharmaceutical Co., Ltd. Added 1 drop of Tween-80 as a solubilizing assistant and prepared the required concentrations with distilled water. Methods: 48-hour fasting rats were divided into groups randomly. Pylon ligation was carried out under ether anaesthesia. […] The rats were sacrificed at 5 hours after the operation and the gastric juice was collected and measured. The content of HCl in gastric juice is determined by titration with 0.1 mol/L NaOH and the significance test was made by t-programme.

in vivo = conditions: dog, 5 mg/kg
Description: Methods: Six healthy male beagle dogs with weight 5.5˜6.7 kg were randomly divided into three groups for triple cross over administration. They were perfused with rabeprazole, tenatoprazole and compound (II) respectively after one-night fasting. The dose of each drug was 5 mg/kg. Each dog was fed with 50 ml water by gastric perfusion after administration of the drug. 2 ml blood was taken respectively from forelimb saphenous vein at 0.25, 0.5, 1, 2, 3, 4, 5, 6, 7, 8, 10, 12 hours after tenatoprazole was administered, at 5, 10, 20, 30, 40, 50, 60, 75, 90, 120, 180 minutes after rabeprazole was administered, and at 1, 2, 3, 3.5, 4, 4.5, 5, 6, 7, 8, 10, 12 hours after compound (II) was administered, and then put each blood sample in each test tube treated with EDTA, then centrifuging for 10 min at 3500 rpm. The upper plasma was removed from the test tube into another test tube containing 50 μl 2% NaOH solution and reserved at −20[…]. The plasma drug concentration was determined by HPLC. Cross-over administration to dogs was performed one week later.
The calculation method for pharmacokinetic parameters: compartment model is estimated by software DAS1.0. […] T½=0.693/λz, Tmax and Cmax are are measured values.

[3] = system: gastric ulcer model induced by acetic acid in rats; assay: Chronic gastric ulcer model induced by acetic acid in rats; format: in vivo; conditions: x ± s
Description: Methods: Abdominal cavities of fasting rats were cut under the anaesthesia of sodium pentobarbital and gently stretched the stomachs. The glandular stomachs near pylons were injected with 20 μl 30% acetic acid and then the abdominal cavities were re-closed. At the day the operation finished, rats were randomly divided into groups and started to be administered with drugs of 10 ml/kg once a day for 10 continuous days. Rats were then sacrificed in the following day when the last drug was administered, and stomachs were taken out and were injected with 10 ml water, and then were put into 3% formaldehyde solution to be fixed for 30 minutes. The stomachs were dissected along their greater curvatures and stretched on a glass plate and the ulcer areas were measured. The significance test was made by t-programme.

[4] = system: ulcer rat models induced by pylori ligation; assay: Ulcer model induced by pylori ligation in rats; format: in vivo
Description: Methods: Sixty 40 hour-fasting rats were divided into 6 groups according to Table 2. A pylori ligation operation was carried out under the anaesthesia of ether. […] The stomachs were dissected and the number of gastric ulcers was counted. The result was tested by a significance test of t-programme.

[5] = system: ulcer model induced by indomethacin in rats; assay: Gastric ulcer model induced by indomethacin in rats; format: in vivo, Wistar rats
Description: Wistar rats, weight: 180-220 g, same number of male and female, provided by Institute of Zoology, Chinese Academy of Medical Sciences. (Certification of Qualification of Animal: scxk Beijing 2000-0006) 0.5% methylcellulose sodium: 2 g/L NaHCO3 is contained and pH value is adjusted to 9.0 with NaOH. Preparation: The drug was porphyrized and diluted with 0.5% methylcellulose sodium to the required concentration. It must be used up in 30 minutes. Methods: Sixty 48-hour fasting rats were divided into six groups and gastric-perfused with different doses of compound (II), sodium rabeprazole and 0.5% methylcellulose sodium (as control), respectively. After 0.5 hour, 20 mg/kg indomethacin was injected into the abdominal cavities. Six hours later, rats were sacrificed by cervical dislocation and the stomachs were taken out. After injected with 10 ml water, stomachs were then fixed in 3% formaldehyde solution. The hemorrhagic spots were counted. A significance test was carried out by t-programme.

[6] = 3 mg/kg by gastric perfusion 0.5 hour before 1 ml anhydrous ethanol
[7] = 10 mg/kg by gastric perfusion 0.5 hour before 1 ml anhydrous ethanol
[8] = 6.7 μmol/kg through the duodenum
[9] = 20.0 μmol/kg through the duodenum
[10] = 20 μmol/kg once a day for 10 days
[11] = 60 μmol/kg once a day for 10 days

Compound | Ulcer area [1, 6] | Ulcer area [1, 7] | ulcer areas, effect in words [1] | Amount of gastric acid [2, 8] | Amount of gastric juice [2, 8] | Amount of gastric acid [2, 9] | Amount of gastric juice [2, 9] | Ulcer area [3, 10] | Ulcer area [3, 11] | further results
COCCCOc1ccnc(C[S+]([O-])c2nc3cc(OC(F)F)ccc3[n-]2)c1C.[Na+] (stereo not drawn) [Compound (I)] | 12.1 ± 18.1 | 5.5 ± 9.9 | more significant effect | – | – | – | – | – | – | –
COc1ccc2[nH]c([S+]([O-])Cc3ncc(C)c(OC)c3C)nc2n1 (stereo not drawn) [Tenatoprazole, tenatoprazole] | – | – | – | 0.16 ± 0.06 mmol/stomach | 2.8 ± 0.7 ml/stomach | 0.14 ± 0.03 mmol/stomach | 2.8 ± 0.5 ml/stomach | 7.6 ± 3.6 mm^2 | 5.8 ± 3.6* mm^2 | AUC (in vivo; male, beagle, po, AUC): 18000 ng·h/mL; AUC (in vivo; male, beagle, po, AUC^12): 16900 ng·h/mL; Cmax (in vivo; male, beagle, po, Cmax): 4280 ng/mL; MRT (in vivo; male, beagle, po, MRT): 5.4 h; half-life (in vivo; male, beagle, po, T1/2): 3.74 h
COCCCOc1ccnc(C[S+]([O-])c2nc3ccccc3[nH]2)c1C (stereo not drawn) [Sodium Rabeprazole] | 26.4 ± 20.6 | 11.1 ± 2.7 | reduced | 0.25 ± 0.10 mmol/stomach | 4.0 ± 0.7 ml/stomach | 0.17 ± 0.08 mmol/stomach | 3.7 ± 0.8 ml/stomach | 6.2 ± 3.5 mm^2 | 4.8 ± 3.1** mm^2 | No. of ulcers ([4]; 40 μmol/kg through duodenum, pylori ligation, 18 hours, x ± s): 8.9 ± 14.7; Inhibition rate ([4]; 40 μmol/kg, pylori ligation ulcer): 63.2%; ulcers in the rats, effect in words ([4]; pylori ligation ulcer): essentially same function; No. of ulcers ([5]; 40 μmol/kg gastric perfusion, indomethacin 20 mg/kg, x ± s): 3.1 ± 4.6; Inhibition rate ([5]; 40 μmol/kg, indomethacin ulcer): 72.3%; hemorrhagic spots on gastric mucosal induced by indomethacin, effect in words ([5]; gastric perfusion): lower than that of compound (II)
COCCCOc1ccnc(C[S+]([O-])c2nc3ccccc3[nH]2)c1C (stereo not drawn) [rabeprazole] | – | – | – | – | – | – | – | – | – | half life (in vivo): less than half hour
